Measurements published in patent publication US7964531B2, “3-phenoxy-4-pyridazinol derivatives and herbicidal composition containing the same” (Mitsui Chemicals Agro, Inc., priority 2001, dated 2011).

How the values were obtained:
Assay type in all cases: in vivo
Settings in all cases: wettable powder applied 3 days after transplanting, judged after 25 days
[1] = tested on: annual broad-leaved weeds (Lindernia spp., Rotala indica); assay: Test Example 1: herbicidal effects, paddy-field pot test
In short: (§1)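 Herbicidal effect and crop injury were rated 0 (0-10% inhibition) to 5 (91-100%) 25 days after treatment. Water-diluted wettable powder was applied to flooded greenhouse pots 3 days after transplanting 2.2-leaf rice. The pots held seeded weeds and sprouted Cyperus serotinus tubers.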

Scirpus joncoides = assay: as above
In short: as §1

Cyperus serotinus = assay: as above
In short: as §1

[2] = tested on: barnyardgrass (Echinochloa oryzicola Vasing.); assay: as above
In short: as §1

[3] = tested on: transplanted paddy-field rice; assay: Test Example 1: crop injury against transplanted paddy-field rice
In short: as §1

Structure (SMILES) | Herbicidal effects Broad leaf ([1]; chemical dosage 10 g/a) | Herbicidal effects Broad leaf ([1]; chemical dosage 20 g/a) | Herbicidal effects Scirpus joncoides (Scirpus joncoides; chemical dosage 10 g/a) | Herbicidal effects Scirpus joncoides (Scirpus joncoides; chemical dosage 20 g/a) | Herbicidal effects Cyperus serotinus (Cyperus serotinus; chemical dosage 10 g/a) | Herbicidal effects Cyperus serotinus (Cyperus serotinus; chemical dosage 20 g/a) | Herbicidal effects Barnyard grass ([2]; chemical dosage 10 g/a) | Herbicidal effects Barnyard grass ([2]; chemical dosage 20 g/a) | Crop injury against transplanted rice ([3]; chemical dosage 10 g/a) | Crop injury against transplanted rice ([3]; chemical dosage 20 g/a) | Herbicidal effects Broad leaf ([1]; chemical dosage 12.5 g/a) | Herbicidal effects Broad leaf ([1]; chemical dosage 25 g/a) | Herbicidal effects Scirpus joncoides (Scirpus joncoides; chemical dosage 12.5 g/a) | Herbicidal effects Scirpus joncoides (Scirpus joncoides; chemical dosage 25 g/a) | Herbicidal effects Cyperus serotinus (Cyperus serotinus; chemical dosage 12.5 g/a) | Herbicidal effects Cyperus serotinus (Cyperus serotinus; chemical dosage 25 g/a) | Herbicidal effects Barnyard grass ([2]; chemical dosage 12.5 g/a) | Herbicidal effects Barnyard grass ([2]; chemical dosage 25 g/a) | Crop injury against transplanted rice ([3]; chemical dosage 12.5 g/a) | Crop injury against transplanted rice ([3]; chemical dosage 25 g/a)
Cc1ccccc1Oc1nnc(Cl)cc1OS(C)(=O)=O [Example 356] | 4 (Growth inhibition rate; 71 to 90%) | 5 (Growth inhibition rate; 91 to 100%) | 3 (Growth inhibition rate; 51 to 70%) | 5 (Growth inhibition rate; 91 to 100%) | 5 (Growth inhibition rate; 91 to 100%) | 5 (Growth inhibition rate; 91 to 100%) | 2 (Growth inhibition rate; 31 to 50%) | 3 (Growth inhibition rate; 51 to 70%) | 0 (Growth inhibition rate; 0 to 10%) | 0 (Growth inhibition rate; 0 to 10%) | – | – | – | – | – | – | – | – | – | –
CCCS(=O)(=O)Oc1cc(Cl)nnc1Oc1cccc2c1CCC2 [Example 361] | 5 (Growth inhibition rate; 91 to 100%) | 5 (Growth inhibition rate; 91 to 100%) | 5 (Growth inhibition rate; 91 to 100%) | 5 (Growth inhibition rate; 91 to 100%) | 4 (Growth inhibition rate; 71 to 90%) | 5 (Growth inhibition rate; 91 to 100%) | 2 (Growth inhibition rate; 31 to 50%) | 3 (Growth inhibition rate; 51 to 70%) | 0 (Growth inhibition rate; 0 to 10%) | 0 (Growth inhibition rate; 0 to 10%) | – | – | – | – | – | – | – | – | – | –
CCCc1cccc(F)c1Oc1nnc(Cl)cc1O [Example 234] | – | – | – | – | – | – | – | – | – | – | 5 (Growth inhibition rate; 91 to 100%) | 5 (Growth inhibition rate; 91 to 100%) | 3 (Growth inhibition rate; 51 to 70%) | 4 (Growth inhibition rate; 71 to 90%) | 5 (Growth inhibition rate; 91 to 100%) | 5 (Growth inhibition rate; 91 to 100%) | 0 (Growth inhibition rate; 0 to 10%) | 0 (Growth inhibition rate; 0 to 10%) | 0 (Growth inhibition rate; 0 to 10%) | 0 (Growth inhibition rate; 0 to 10%)
Cc1ccc(S(=O)(=O)Oc2cc(Cl)nnc2Oc2ccccc2C2CC2)cc1 [Example 27] | 5 (Growth inhibition rate; 91 to 100%) | 5 (Growth inhibition rate; 91 to 100%) | 4 (Growth inhibition rate; 71 to 90%) | 5 (Growth inhibition rate; 91 to 100%) | 5 (Growth inhibition rate; 91 to 100%) | 5 (Growth inhibition rate; 91 to 100%) | 2 (Growth inhibition rate; 31 to 50%) | 4 (Growth inhibition rate; 71 to 90%) | 0 (Growth inhibition rate; 0 to 10%) | 0 (Growth inhibition rate; 0 to 10%) | – | – | – | – | – | – | – | – | – | –
Oc1cc(Cl)nnc1Oc1ccccc1Br [Example 51] | – | – | – | – | – | – | – | – | – | – | 4 (Growth inhibition rate; 71 to 90%) | 5 (Growth inhibition rate; 91 to 100%) | 3 (Growth inhibition rate; 51 to 70%) | 5 (Growth inhibition rate; 91 to 100%) | 5 (Growth inhibition rate; 91 to 100%) | 5 (Growth inhibition rate; 91 to 100%) | 2 (Growth inhibition rate; 31 to 50%) | 2 (Growth inhibition rate; 31 to 50%) | 0 (Growth inhibition rate; 0 to 10%) | 0 (Growth inhibition rate; 0 to 10%)
Oc1cc(Cl)nnc1Oc1ccccc1I [Example 52] | 5 (Growth inhibition rate; 91 to 100%) | 5 (Growth inhibition rate; 91 to 100%) | 5 (Growth inhibition rate; 91 to 100%) | 5 (Growth inhibition rate; 91 to 100%) | 5 (Growth inhibition rate; 91 to 100%) | 5 (Growth inhibition rate; 91 to 100%) | 3 (Growth inhibition rate; 51 to 70%) | 4 (Growth inhibition rate; 71 to 90%) | 0 (Growth inhibition rate; 0 to 10%) | 0 (Growth inhibition rate; 0 to 10%) | – | – | – | – | – | – | – | – | – | –
Oc1cc(Cl)nnc1Oc1cccc2c1OCO2 [Example 192] | 2 (Growth inhibition rate; 31 to 50%) | 3 (Growth inhibition rate; 51 to 70%) | 5 (Growth inhibition rate; 91 to 100%) | 5 (Growth inhibition rate; 91 to 100%) | 5 (Growth inhibition rate; 91 to 100%) | 5 (Growth inhibition rate; 91 to 100%) | 2 (Growth inhibition rate; 31 to 50%) | 5 (Growth inhibition rate; 91 to 100%) | 0 (Growth inhibition rate; 0 to 10%) | 1 (Growth inhibition rate; 11 to 30%) | – | – | – | – | – | – | – | – | – | –
COc1cccc(C2CC2)c1Oc1nnc(Cl)cc1O [Example 276] | 5 (Growth inhibition rate; 91 to 100%) | 5 (Growth inhibition rate; 91 to 100%) | 3 (Growth inhibition rate; 51 to 70%) | 4 (Growth inhibition rate; 71 to 90%) | 5 (Growth inhibition rate; 91 to 100%) | 5 (Growth inhibition rate; 91 to 100%) | 3 (Growth inhibition rate; 51 to 70%) | 4 (Growth inhibition rate; 71 to 90%) | 0 (Growth inhibition rate; 0 to 10%) | 0 (Growth inhibition rate; 0 to 10%) | – | – | – | – | – | – | – | – | – | –
COC(=O)Oc1cc(Cl)nnc1Oc1ccccc1C1CC1 [Example 345] | 5 (Growth inhibition rate; 91 to 100%) | 5 (Growth inhibition rate; 91 to 100%) | 5 (Growth inhibition rate; 91 to 100%) | 5 (Growth inhibition rate; 91 to 100%) | 5 (Growth inhibition rate; 91 to 100%) | 5 (Growth inhibition rate; 91 to 100%) | 3 (Growth inhibition rate; 51 to 70%) | 4 (Growth inhibition rate; 71 to 90%) | 0 (Growth inhibition rate; 0 to 10%) | 0 (Growth inhibition rate; 0 to 10%) | – | – | – | – | – | – | – | – | – | –
Cc1cc(C)c(C)c(Oc2nnc(Cl)cc2O)c1 [Example 286] | – | – | – | – | – | – | – | – | – | – | 5 (Growth inhibition rate; 91 to 100%) | 5 (Growth inhibition rate; 91 to 100%) | 5 (Growth inhibition rate; 91 to 100%) | 5 (Growth inhibition rate; 91 to 100%) | 5 (Growth inhibition rate; 91 to 100%) | 5 (Growth inhibition rate; 91 to 100%) | 0 (Growth inhibition rate; 0 to 10%) | 0 (Growth inhibition rate; 0 to 10%) | 0 (Growth inhibition rate; 0 to 10%) | 0 (Growth inhibition rate; 0 to 10%)
Cc1ccc(C)c(Oc2nnc(Cl)cc2O)c1Br [Example 290] | 5 (Growth inhibition rate; 91 to 100%) | – | 4 (Growth inhibition rate; 71 to 90%) | – | 5 (Growth inhibition rate; 91 to 100%) | – | 0 (Growth inhibition rate; 0 to 10%) | – | 0 (Growth inhibition rate; 0 to 10%) | – | – | – | – | – | – | – | – | – | – | –
Cc1coc2cccc(Oc3nnc(Cl)cc3O)c12 [Example 184] | – | 5 (Growth inhibition rate; 91 to 100%) | – | 4 (Growth inhibition rate; 71 to 90%) | – | 5 (Growth inhibition rate; 91 to 100%) | – | 0 (Growth inhibition rate; 0 to 10%) | – | 0 (Growth inhibition rate; 0 to 10%) | – | – | – | – | – | – | – | – | – | –
Oc1cc(Cl)nnc1Oc1cccc(F)c1F [Example 154] | 5 (Growth inhibition rate; 91 to 100%) | 5 (Growth inhibition rate; 91 to 100%) | 3 (Growth inhibition rate; 51 to 70%) | 5 (Growth inhibition rate; 91 to 100%) | 5 (Growth inhibition rate; 91 to 100%) | 5 (Growth inhibition rate; 91 to 100%) | 1 (Growth inhibition rate; 11 to 30%) | 2 (Growth inhibition rate; 31 to 50%) | 0 (Growth inhibition rate; 0 to 10%) | 0 (Growth inhibition rate; 0 to 10%) | – | – | – | – | – | – | – | – | – | –
